Data on 16 compounds can be found in patent publication US12662465B2, “EGFR inhibitors” (Blueprint Medicines Corporation, priority 2021, dated 2026).

Like-named read-outs stand apart in the source and are kept apart here.

One test has as its target T1, EGFR L858R (Homo sapiens, UniProt P00533, L858R).
T1 construct: purchased SignalChem E10-122BG
The test is described as follows: Biochemical EGFR inhibition assay (Caliper mobility shift), EGFR L858R. The conditions noted are these: read-out: Enz EGFR_L858R IC50.

For a further test, the target named is T2, EGFR (d746-750) (Homo sapiens, UniProt P00533, DEL746-750).
T2 construct: purchased SignalChem E10-122JG
In words: Biochemical EGFR inhibition assay (Caliper mobility shift), EGFR (d746-750). The conditions noted are these: read-out: Enz EGFR_Exon19-del746-750 IC50.

The target of test [1] is intracellular phosphorylation of EGFR (Tyr1068) in PC-9 cells (Ex19Del) (Homo sapiens, UniProt P00533, DEL746-750). The test is described as follows: PC-9 pEGFR AlphaLISA assay. The format is cell-based. To be noted: 4 hours compound incubation, read-out: Ext pEGFR_PC-9 Ex19Del IC50. (Alpha assays give light when donor and acceptor beads are brought close together.)
The mark [2] stands for this setting: 1.0 mM ATP or ATP Km, room temperature (25° C.).

T2 sequence (P00533 with tags, fused parts or gaps DEL746-750 limits assumed): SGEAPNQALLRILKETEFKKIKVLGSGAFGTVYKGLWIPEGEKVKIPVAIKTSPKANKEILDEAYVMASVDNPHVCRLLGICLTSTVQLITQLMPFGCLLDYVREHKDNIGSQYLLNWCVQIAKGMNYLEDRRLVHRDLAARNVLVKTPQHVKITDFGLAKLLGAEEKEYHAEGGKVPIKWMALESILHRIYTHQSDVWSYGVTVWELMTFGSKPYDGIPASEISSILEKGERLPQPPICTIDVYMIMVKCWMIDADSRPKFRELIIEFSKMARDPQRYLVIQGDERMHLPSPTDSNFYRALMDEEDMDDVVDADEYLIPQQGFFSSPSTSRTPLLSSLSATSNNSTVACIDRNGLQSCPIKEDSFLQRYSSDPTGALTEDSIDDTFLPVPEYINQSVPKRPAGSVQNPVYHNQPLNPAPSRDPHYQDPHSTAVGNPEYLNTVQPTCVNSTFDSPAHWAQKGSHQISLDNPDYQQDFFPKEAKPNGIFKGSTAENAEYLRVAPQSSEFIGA
T1 sequence (P00533 25-1210 L858R): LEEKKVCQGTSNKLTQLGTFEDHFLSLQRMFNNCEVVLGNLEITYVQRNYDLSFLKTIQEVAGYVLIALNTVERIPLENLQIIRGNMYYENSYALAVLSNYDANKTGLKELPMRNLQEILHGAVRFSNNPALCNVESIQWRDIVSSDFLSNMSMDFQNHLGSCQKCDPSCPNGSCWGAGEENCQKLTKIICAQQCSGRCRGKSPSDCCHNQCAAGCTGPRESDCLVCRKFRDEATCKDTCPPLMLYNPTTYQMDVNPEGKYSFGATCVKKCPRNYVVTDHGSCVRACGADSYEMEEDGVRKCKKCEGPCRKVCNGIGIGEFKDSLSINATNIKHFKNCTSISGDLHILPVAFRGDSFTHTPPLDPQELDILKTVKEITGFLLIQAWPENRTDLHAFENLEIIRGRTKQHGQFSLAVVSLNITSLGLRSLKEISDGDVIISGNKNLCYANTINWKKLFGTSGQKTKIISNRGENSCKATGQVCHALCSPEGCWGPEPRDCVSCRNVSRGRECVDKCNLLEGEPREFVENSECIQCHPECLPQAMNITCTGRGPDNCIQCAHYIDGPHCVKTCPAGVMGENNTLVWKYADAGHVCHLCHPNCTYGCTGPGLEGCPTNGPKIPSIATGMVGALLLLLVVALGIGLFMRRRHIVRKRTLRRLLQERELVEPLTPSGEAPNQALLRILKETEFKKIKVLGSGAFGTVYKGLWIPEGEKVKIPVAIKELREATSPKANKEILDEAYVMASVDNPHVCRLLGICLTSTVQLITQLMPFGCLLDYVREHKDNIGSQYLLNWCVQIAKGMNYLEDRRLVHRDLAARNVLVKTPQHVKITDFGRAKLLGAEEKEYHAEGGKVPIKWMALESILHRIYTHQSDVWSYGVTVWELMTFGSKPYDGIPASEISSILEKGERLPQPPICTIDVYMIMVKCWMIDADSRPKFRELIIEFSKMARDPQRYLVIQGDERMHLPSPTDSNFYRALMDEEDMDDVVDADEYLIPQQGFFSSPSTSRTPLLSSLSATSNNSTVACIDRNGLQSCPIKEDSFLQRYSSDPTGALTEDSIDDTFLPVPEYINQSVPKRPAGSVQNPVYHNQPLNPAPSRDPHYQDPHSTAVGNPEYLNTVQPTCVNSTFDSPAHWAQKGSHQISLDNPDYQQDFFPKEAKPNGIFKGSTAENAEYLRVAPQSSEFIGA
intracellular phosphorylation of EGFR (Tyr1068) in PC-9 cells (Ex19Del), sequence (P00533 with tags, fused parts or gaps DEL746-750): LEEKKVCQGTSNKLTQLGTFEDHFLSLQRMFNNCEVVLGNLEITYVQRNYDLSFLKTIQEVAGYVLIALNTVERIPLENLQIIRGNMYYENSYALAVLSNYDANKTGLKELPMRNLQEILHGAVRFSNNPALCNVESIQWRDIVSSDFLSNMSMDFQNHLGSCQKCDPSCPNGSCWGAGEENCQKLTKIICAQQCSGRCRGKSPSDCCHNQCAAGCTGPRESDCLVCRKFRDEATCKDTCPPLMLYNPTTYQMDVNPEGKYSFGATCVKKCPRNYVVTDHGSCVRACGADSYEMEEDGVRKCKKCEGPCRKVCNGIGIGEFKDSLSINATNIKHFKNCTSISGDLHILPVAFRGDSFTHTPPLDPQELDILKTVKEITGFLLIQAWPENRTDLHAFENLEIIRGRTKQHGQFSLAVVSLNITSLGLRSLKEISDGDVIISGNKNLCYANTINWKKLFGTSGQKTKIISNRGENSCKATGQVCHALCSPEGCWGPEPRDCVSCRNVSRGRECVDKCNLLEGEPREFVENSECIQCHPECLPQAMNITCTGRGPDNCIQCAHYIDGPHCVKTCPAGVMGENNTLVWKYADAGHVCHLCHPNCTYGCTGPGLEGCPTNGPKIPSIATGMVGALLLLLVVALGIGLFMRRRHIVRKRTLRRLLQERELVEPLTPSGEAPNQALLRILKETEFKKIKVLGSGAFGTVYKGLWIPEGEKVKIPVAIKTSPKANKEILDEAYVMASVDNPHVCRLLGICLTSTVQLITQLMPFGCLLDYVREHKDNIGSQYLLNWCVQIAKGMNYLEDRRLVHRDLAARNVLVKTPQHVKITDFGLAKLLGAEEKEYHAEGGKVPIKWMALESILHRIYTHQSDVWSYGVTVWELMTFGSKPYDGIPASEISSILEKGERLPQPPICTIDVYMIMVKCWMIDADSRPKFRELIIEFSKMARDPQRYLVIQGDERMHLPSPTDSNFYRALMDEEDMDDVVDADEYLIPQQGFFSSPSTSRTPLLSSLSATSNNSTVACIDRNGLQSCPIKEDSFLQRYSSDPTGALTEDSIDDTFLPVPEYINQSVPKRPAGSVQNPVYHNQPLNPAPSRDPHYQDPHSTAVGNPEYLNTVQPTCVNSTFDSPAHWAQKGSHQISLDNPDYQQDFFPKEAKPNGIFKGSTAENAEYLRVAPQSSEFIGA

Regarding `C[C@H](CN(C)C)Oc1cc(N2CCCC2=O)cc2ncnc(Nc3ccc4ncccc4c3F)c12` [Example 96, (R)-1-(5-((1-(dimethylamino)propan-2-yl)oxy)-4-((5-fluoroquinolin-6-yl)amino)quinazolin-7-yl)pyrrolidin-2-one], the figures for the IC50 (at EGFR L858R; on EGFR (d746-750); in test [1]) were 10.1 to 50 nM, less than 10 nM and no more than 10 nM, respectively.

Take `COc1cc(O[C@H](C)C2COC2)c2c(Nc3ccc4ncccc4c3F)ncnc2c1` [Example 56, (R)—N-(5-fluoroquinolin-6-yl)-7-methoxy-5-(1-(oxetan-3-yl)ethoxy)quinazolin-4-amine]: the concentration for half-maximal inhibition (IC50) is less than 10 nM at EGFR L858R, less than 10 nM at EGFR (d746-750) and no more than 10 nM in test [1].

Turning to `COc1nn(C)cc1-c1cc(O[C@H](C)CN(C)C)c2c(Nc3ccc4ncccc4c3F)ncnc2c1` [Example 54, (R)-5-((1-(dimethylamino)propan-2-yl)oxy)-N-(5-fluoroquinolin-6-yl)-7-(3-methoxy-1-methyl-1H-pyrazol-4-yl)quinazolin-4-amine], the half-inhibitory concentration (IC50) at EGFR L858R was less than 10 nM; on EGFR (d746-750), less than 10 nM; in test [1] it was no more than 10 nM.

Turning to `C[C@@H](Oc1cc(-c2cnn(C)c2)cc2ncnc(Nc3ccc4ncccc4c3F)c12)[C@@H]1COCCN1` (single isomer, unassigned) [Example 124], the half-inhibitory concentration (IC50) is less than 10 nM at EGFR L858R (setting [2]), less than 10 nM at EGFR (d746-750) (setting [2]) and 10.1 to 50 nM in test [1].

In the case of `C[C@@H](Oc1cc(-c2cnn(C)c2)cc2ncnc(Nc3ccc4ncccc4c3F)c12)C(CO)CCl` (stereo partly drawn) [Example 113, (3R)-2-(chloromethyl)-3-((4-((5-fluoroquinolin-6-yl)amino)-7-(1-methyl-1H-pyrazol-4-yl)quinazolin-5-yl)oxy)butan-1-ol], the IC50 is less than 10 nM at EGFR L858R, less than 10 nM on EGFR (d746-750) and no more than 10 nM in test [1].

Take `CN1CCC(Oc2cc(-c3cnn(CC(F)F)c3)cc3ncnc(Nc4ccc5ncccc5c4F)c23)CC1` [Example 53, 7-(1-(2,2-difluoroethyl)-1H-pyrazol-4-yl)-N-(5-fluoroquinolin-6-yl)-5-((1-methylpiperidin-4-yl)oxy)quinazolin-4-amine]: the half-inhibitory concentration (IC50) at EGFR L858R is less than 10 nM; on EGFR (d746-750), less than 10 nM; in test [1] it was no more than 10 nM.

Regarding `CN(C)C[C@H](Oc1cc(-c2cnn(C)c2)cc2ncnc(Nc3ccc4ncccc4c3F)c12)C(F)F` (single isomer, unassigned) [Example 37, (S)-5-((3-(dimethylamino)-1,1-difluoropropan-2-yl)oxy)-N-(5-fluoroquinolin-6-yl)-7-(1-methyl-1H-pyrazol-4-yl)quinazolin-4-amine or (R)-5-((3-(dimethylamino)-1,1-difluoropropan-2-yl)oxy)-N-(5-fluoroquinolin-6-yl)-7-(1-methyl-1H-pyrazol-4-yl)quinazolin-4-amine], the 50% inhibitory concentration (IC50) was less than 10 nM on EGFR L858R (setting [2]), less than 10 nM on EGFR (d746-750) (setting [2]) and no more than 10 nM in test [1].

For the compound `Cc1ccc2cc(Nc3ncnc4cc(-c5cnn(C)c5)cc(O[C@H](C)CN(C)C)c34)ccc2n1` [Example 105, (R)-5-((1-(dimethylamino)propan-2-yl)oxy)-7-(1-methyl-1H-pyrazol-4-yl)-N-(2-methylquinolin-6-yl)quinazolin-4-amine], the values for the IC50 (on EGFR L858R; on EGFR (d746-750); in test [1]) were 10.1 to 50 nM, less than 10 nM and 10.1 to 50 nM, respectively.

Consider `C[C@H](CN(C)C)Oc1cc(N2CCn3cncc3C2)cc2ncnc(Nc3ccc4ncccc4c3F)c12` [Example 90, (R)-7-(5,6-dihydroimidazo[1,5-a]pyrazin-7(8H)-yl)-5-((1-(dimethylamino)propan-2-yl)oxy)-N-(5-fluoroquinolin-6-yl)quinazolin-4-amine], for which the figures for the IC50 (at EGFR L858R; on EGFR (d746-750); in test [1]) were 10.1 to 50 nM, less than 10 nM and no more than 10 nM, respectively.

In the case of `C[C@@H](Oc1cc(N2CC[C@H](C(C)(C)O)C2)cc2ncnc(Nc3ccc4ncccc4c3F)c12)C1COC1` [Example 62, 2—((S)-1-(4-((5-fluoroquinolin-6-yl)amino)-5-((R)-1-(oxetan-3-yl)ethoxy)quinazolin-7-yl)pyrrolidin-3-yl)propan-2-ol], the concentration for half-maximal inhibition (IC50) was less than 10 nM at EGFR L858R, less than 10 nM at EGFR (d746-750) and no more than 10 nM in test [1].

For the compound `C[C@H](CN(C)C)Oc1cc(N2CC3CCC(C2)O3)cc2ncnc(Nc3ccc4ncccc4c3F)c12` [Example 69, 7-(8-oxa-3-azabicyclo[3.2.1]octan-3-yl)-5-(((R)-1-(dimethylamino)propan-2-yl)oxy)-N-(5-fluoroquinolin-6-yl)quinazolin-4-amine], the IC50 on EGFR L858R was greater than 50.1 nM; on EGFR (d746-750) it was 10.1 to 50 nM; in test [1] it was greater than 50.1 nM.

As to `[2H]c1ccc2cc(Nc3ncnc4cc(-c5cnn(C)c5)cc(O[C@H](C)CN(C)C)c34)ccc2n1` [Example 156, (R)-5-((1-(dimethylamino)propan-2-yl)oxy)-7-(1-methyl-1H-pyrazol-4-yl)-N-(quinolin-6-yl-2-d)quinazolin-4-amine], the figures for the IC50 (at EGFR L858R; on EGFR (d746-750); in test [1]) were less than 10 nM, less than 10 nM and no more than 10 nM, respectively.

Consider `C[C@@H](Oc1cc(-c2cnn([C@@H](C)CO)c2)cc2ncnc(Nc3ccc4ncccc4c3F)c12)C1COC1` (single isomer, unassigned) [Example 121, (S)-2-(4-(4-((5-fluoroquinolin-6-yl)amino)-5-((R)-1-(oxetan-3-yl)ethoxy)quinazolin-7-yl)-1H-pyrazol-1-yl)propan-1-ol or (R)-2-(4-(4-((5-fluoroquinolin-6-yl)amino)-5-((R)-1-(oxetan-3-yl)ethoxy)quinazolin-7-yl)-1H-pyrazol-1-yl)propan-1-ol], for which the IC50 on EGFR L858R (setting [2]) was less than 10 nM; on EGFR (d746-750) (setting [2]), less than 10 nM; in test [1], no more than 10 nM.

In the case of `[2H]c1ccc2c(F)c(Nc3ncnc4cc(-c5cnn(C)c5)cc(O[C@H](C)CN(C)C)c34)ccc2n1` [Example 155, (R)-5-((1-(dimethylamino)propan-2-yl)oxy)-N-(5-fluoroquinolin-6-yl-2-d)-7-(1-methyl-1H-pyrazol-4-yl)quinazolin-4-amine], the concentration for half-maximal inhibition (IC50) was less than 10 nM on EGFR L858R, less than 10 nM on EGFR (d746-750) and no more than 10 nM in test [1].

In the case of `C[C@@H](CN(C)C)Oc1cc(-c2cnn(C)c2)cc2ncnc(Nc3ccc4ncccc4c3F)c12` (single isomer, unassigned) [Example 4, (S)-5-((1-(dimethylamino)propan-2-yl)oxy)-N-(5-fluoroquinolin-6-yl)-7-(1-methyl-1H-pyrazol-4-yl)quinazolin-4-amine or (R)-5-((1-(dimethylamino)propan-2-yl)oxy)-N-(5-fluoroquinolin-6-yl)-7-(1-methyl-1H-pyrazol-4-yl)quinazolin-4-amine], the IC50 was 10.1 to 50 nM on EGFR L858R (setting [2]), 10.1 to 50 nM on EGFR (d746-750) (setting [2]) and greater than 50.1 nM in test [1].

As to `C[C@H](CN(C)C)Oc1cc(-c2cnn(C)c2)cc2ncnc(Nc3c(F)cc4ncccc4c3F)c12` [Example 106, (R)—N-(5,7-difluoroquinolin-6-yl)-5-((1-(dimethylamino)propan-2-yl)oxy)-7-(1-methyl-1H-pyrazol-4-yl)quinazolin-4-amine], the half-inhibitory concentration (IC50) on EGFR L858R was less than 10 nM; at EGFR (d746-750) it was less than 10 nM; in test [1], no more than 10 nM.

By IC50 is commonly meant the concentration that gives 50% inhibition.
